This note sets out measurements from ChEMBL document CHEMBL1154273, “Synthesis and antimalarial activity of new atovaquone derivatives” (Eur J Med Chem, 2009).

One may read the IC50 as the point on the concentration scale where inhibition reaches its midpoint.

In this assay the test system is Plasmodium falciparum. The assay is described as follows: Antimalarial activity against Plasmodium falciparum Nigerian assessed as [3H]hypoxanthine uptake after 48 hrs by liquid scintillation counting. It counts as functional, organism-based.

Regarding `CCCCCCCCCCCCCCCCCC(=O)OC1=C([C@H]2CC[C@H](c3ccc(Cl)cc3)CC2)C(=O)c2ccccc2C1=O`, the IC50 came to 52 nM.
For the molecule `O=C(Cc1ccc(Cl)cc1)OC1=C([C@H]2CC[C@H](c3ccc(Cl)cc3)CC2)C(=O)c2ccccc2C1=O`, the IC50 came out at 1.65 nM.
For `CCCCCCCCCCCCCCCCCCOC1=C([C@H]2CC[C@H](c3ccc(Cl)cc3)CC2)C(=O)c2ccccc2C1=O` the value was 32 nM; for `CCCCCCCCCC(=O)OC1=C([C@H]2CC[C@H](c3ccc(Cl)cc3)CC2)C(=O)c2ccccc2C1=O`, 1.9 nM.
On to `O=C(OC1=C([C@H]2CC[C@H](c3ccc(Cl)cc3)CC2)C(=O)c2ccccc2C1=O)c1ccc(F)cc1`, for which the IC50 amounted to 1.6 nM.
Take `O=C(Cc1ccc(F)cc1)OC1=C([C@H]2CC[C@H](c3ccc(Cl)cc3)CC2)C(=O)c2ccccc2C1=O`: the IC50 was found to be 1.75 nM.
For `O=C(/C=C/c1ccccc1)OC1=C([C@H]2CC[C@H](c3ccc(Cl)cc3)CC2)C(=O)c2ccccc2C1=O` the value was 1.45 nM; for `CCCCCCCCCC(=O)OC1=C([C@H]2CC[C@H](c3ccc(Cl)cc3)CC2)C(=O)C(=O)c2ccccc21`, greater than 100 nM; for `CCOC1=C([C@H]2CC[C@H](c3ccc(Cl)cc3)CC2)C(=O)c2ccccc2C1=O`, 5.55 nM.
`O=C1C(OCc2ccccc2)=C([C@H]2CC[C@H](c3ccc(Cl)cc3)CC2)C(=O)c2ccccc21`: the IC50 came to 7.65 nM.
`CCCCCCOC1=C([C@H]2CC[C@H](c3ccc(Cl)cc3)CC2)C(=O)c2ccccc2C1=O`: the IC50 worked out at 13.5 nM.
As to `CCCCCCCCCOC1=C([C@H]2CC[C@H](c3ccc(Cl)cc3)CC2)C(=O)c2ccccc2C1=O`, the IC50 worked out at 14 nM.
Regarding `CCCCCCCCCCOC1=C([C@H]2CC[C@H](c3ccc(Cl)cc3)CC2)C(=O)c2ccccc2C1=O`, the IC50 amounted to 11 nM.
In the case of `CCCCCCCC(=O)OC1=C([C@H]2CC[C@H](c3ccc(Cl)cc3)CC2)C(=O)c2ccccc2C1=O`, the IC50 came out at 1.5 nM.
Consider `CCCCCCCCC(=O)OC1=C([C@H]2CC[C@H](c3ccc(Cl)cc3)CC2)C(=O)c2ccccc2C1=O`, for which the IC50 is 3.1 nM.
The same measure for `CC(=O)OC1=C([C@H]2CC[C@H](c3ccc(Cl)cc3)CC2)C(=O)c2ccccc2C1=O`: 1.5 nM.
With `O=C(OC1=C([C@H]2CC[C@H](c3ccc(Cl)cc3)CC2)C(=O)c2ccccc2C1=O)c1ccccc1`, the IC50 was 1.25 nM.
For `CCCCCC(=O)OC1=C([C@H]2CC[C@H](c3ccc(Cl)cc3)CC2)C(=O)c2ccccc2C1=O` the value was 1.25 nM; for `O=C1C(O)=C([C@H]2CC[C@H](c3ccc(Cl)cc3)CC2)C(=O)c2ccccc21` [ATOVAQUONE], 0.75 nM; for `C=C[C@H]1CN2CC[C@H]1C[C@H]2[C@H](O)c1ccnc2ccc(OC)cc12` [QUININE], 180 nM.
